Measurements published in US10876088B2, “Modular organ microphysiological system with integrated pumping, leveling, and sensing” (Massachusetts Institute of Technology, priority 2016, dated 2020).

What was measured:
[1] = tested on: immune-competent liver MPS (hepatocytes and Kupffer cells)
Protocol: (§1) Metabolic and immunologically competent 3D cryopreserved human hepatocytes and kupffer cells were cocultured.
An immune-competent liver MPS model was prepared and studied.

[2] = tested on: endometrium MPS; assay: Drug toxicity in endometrium MPS; format: cell-based
Protocol: An exemplary endometrium model of cell culture system in a […]® on the MPS platform includes hydrogel encapsulating stromal cells and epithelial cells on top surface of the hydrogel were cultured on the apical side of the […]®. […] The cell line used was Ishikawa human stage 1 adenocarincoma cell line, which were estrogen and progesterone receptor positive, polarized in matrigel (Chitcholtan et al., Exp Cell Research, (2013)) or functionalized PEG gels, and had low/variable secretion of glycodelin. […] The cell line used was human tert-immortalized cell line (tHESC), which was highly proliferative and stable, had low/variable secretion of prolactin or IGF-BP1 without strong decidualization cues, and could be quiesced in PEG gels.
An endometrium MPS model was prepared and studied.

[3] = tested on: immune-competent gut-liver interacted MPS; assay: Gut-liver 2-way MPS, tolcapone added to gut ("oral"); format: cell-based, human
Protocol: Tolcapone was added to the gut MPS to mimick “oral” administration. Metrics were an volume-weighted average from the 3 media compartments: Signalsystemic=Signalapical, gut*Vapical, gut+Signalbasal, gut*Vbasal, gut+Signalliver*Vliver.

[4] = tested on: immune-competent gut MPS (Caco2, HT29-MTX, dendritic cells)
[5] = human, in vivo
[6] = tested on: 7-way MPS platform
Protocol: The 7-way platform include gut (immune-competent), liver (immune-competent), lung, endometrium, cardiac, brain, and pancreas MPSs, and was assessed for survivability and function over a 3-week period. Each MPS was differentiated or matured in isolation prior to the interaction study. Platforms were run at a systemic flow rate of Qmix=10 mL/day, with flow partitioning. During the medium changes, a basal common medium was used for the gut, lung, liver, and endometrium MPSs, while the new MPS were supplied with their preferred maintenance media. Each basal medium was then allowed to mix throughout the course of the interaction, with media changes at 48-hour intervals. Functionality of each MPS was evaluated every 2-4 days up to 3 weeks, in comparison to isolated MPSs to benchmark the non-interacting MPS functions.

[7] = oral, in vivo; read-out: maximum measured plasma concentration, Cmax; cited from earlier work
[8] = tested on: hepatocyte-Kupffer cocultured liver MPS; assay: Hydrocortisone effect on cocultured liver MPS; format: cell-based, human
Protocol: as §1
The secretions of interleukin 6 (IL-6) and tumor necrosis factor alpha (TNFα) of the cocultured liver MPS were measured. The reproducibility of IL-6 response to LPS stimulus was determined. A physiologically-relevant (relatively low) level of cortisol was used in the common media.

[9] = tested on: hepatocyte-Kupffer cell co-cultures; assay: LPS stimulus of hepatocyte-Kupffer co-cultures; format: cell-based, human

Q: With `Cc1ccc(C(=O)c2cc(O)c(O)c([N+](=O)[O-])c2)cc1` [Tolcapone] as the compound, how does the cell death ([1]; immune-competent liver MPS) read?
A: caused cell death

Q: What about the mitochondrial activity ([1]; immune-competent liver MPS) of the same compound?
A: decreased mitochondrial activity

Q: What about the “loss of function and cellular death” value [2] of the same compound?
A: loss of function correlating with cellular death

Q: What about the “generic cell death marker” value [3] of the same compound?
A: insensitive

Q: And the “gut and liver function” value [3]?
A: MPS-specific loss of function

Q: And the cell death markers ([3]; MPS-specific markers)?
A: suffered from MPS-specific cell death markers

Q: And the cell death [4]?
A: severe cellular death

Q: What about the “epithelial barrier integrity / epithelial function” value [4] of the same compound?
A: complete loss of epithelial function

Q: Which results are given for `O=C(O)Cc1ccccc1Nc1c(Cl)cccc1Cl` [Diclofenac, diclofenac]?
A: liver functions [1]: impaired liver functions; cell death ([1]; immune-competent liver MPS): cell death was minimal; loss of function and cellular death [2]: loss of function correlating with cellular death; free drug elimination per cell rate constant [5]: 1.76×10^−10 (cell*min)^−1; absorption and distribution across MPS compartments [6]: absorbed across the gut epithelial barrier; unbound intrinsic clearance CL_int(u) ([6]; human): 13.90 µL/min; Cmax [7]: 2 to 6 µM

Q: With `C[C@]12CCC(=O)C=C1CC[C@@H]1[C@@H]2[C@@H](O)C[C@@]2(C)[C@H]1CC[C@]2(O)C(=O)CO` [Hydrocortisone] as the compound, how does the “CYP450 activity dependence on hydrocortisone levels” value ([8]; 21 day cultures) read?
A: sensitive

Q: And the differentiated function ([8]; cocultured liver MPS)?
A: enhanced differentiated function

Q: What about the inflammatory response ([8]; cocultured liver MPS) of the same compound?
A: suppressed inflammatory response

Q: With Lipopolysaccharide as the compound, how does the “lowest LPS stimulus to which co-cultures were responsive” value [9] read?
A: ≥ 0.01 µg/mL
